Experimental data from patent US10174067B2, “Type of cytidine derivative and application thereof” (priority 2014, dated 2019).
Marks after values point to notes of the source that are not given here.

Assays:
[1] = test system: HCT-116 colon cancer xenografts; assay: Tumor growth inhibition of HCT-116 colon cancer xenografts in tumor-bearing nude mice (tumor volume, TGI %, RTV, T/C %); type: in vivo, Balb/c Nude mice; conditions: for T/C % (relative tumor proliferation rate): dosage 400 mg/kg (G10-G16 study);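 as to T/C % (relative tumor proliferation rate): control C is the vehicle-treated model control group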
Procedure, shortened: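 Nude mice inoculated with HCT-116 cells (about 3×10^7 cells/mL in serum-free medium). Tumor diameter measured three times weekly and volume computed as V=3/4π(D/2)^3. Activity expressed as TGI (%) and T/C (%) from relative tumor volume Vt/V0, with V0 taken at grouping and dosing start; P<0.05 significant.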

[2] = Procedure, shortened: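 Female SPF Balb/c nude mice bearing subcutaneous HCT-116 xenografts (3×10^6 cells, right hind limb), grouped at 60–150 mm^3, 6 per group; vehicle ethanol/Cremophor EL/saline 5:5:90. Body weight thrice weekly; tumours excised and weighed at sacrifice; Mean±SEM, unpaired t-test, P<0.05.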
[3] = Day 0, G10-G16 groups, single IP 400 mg/kg
[4] = Day 0, G10-G16 groups, single IP 400 mg/kg, Mean±SEM
[5] = Day 1, G10-G16 groups, single IP 400 mg/kg, Mean±SEM
[6] = Day 2, G10-G16 groups, single IP 400 mg/kg, Mean±SEM
[7] = Day 4, G10-G16 groups, single IP 400 mg/kg, Mean±SEM
[8] = Day 7, G10-G16 groups, single IP 400 mg/kg, Mean±SEM
[9] = Day 9, G10-G16 groups, single IP 400 mg/kg, Mean±SEM
[10] = Day 11, G10-G16 groups, single IP 400 mg/kg, Mean±SEM
[11] = Day 14, G10-G16 groups, single IP 400 mg/kg, Mean±SEM
[12] = Day 16, G10-G16 groups, single IP 400 mg/kg, Mean±SEM
[13] = Day 18, G10-G16 groups, single IP 400 mg/kg, Mean±SEM
[14] = Day 21, G10-G16 groups, single IP 400 mg/kg, Mean±SEM
[15] = Day 23, G10-G16 groups, single IP 400 mg/kg, Mean±SEM
[16] = Day 25, G10-G16 groups, single IP 400 mg/kg, Mean±SEM
[17] = Day 28, G10-G16 groups, single IP 400 mg/kg, Mean±SEM
[18] = Day 30, G10-G16 groups, single IP 400 mg/kg, Mean±SEM

O=C(COc1nc(Cl)c(Cl)cc1Cl)OC[C@H]1O[C@@H](n2cc(Br)c(NC(=O)OCc3ccccc3)nc2=O)C(F)(F)C1O (stereo partly shown) [Compound G10]
Day 0 (RTV) [1, 3]: 1.00 | Tumor volume, Day 0 [1, 4]: 83.23 ± 12.39 mm^3 | T/C % (relative tumor proliferation rate) ([1]; Day 0): 0.00% | Day 1 (TGI %) ([1]; Day 1, G10-G16 groups, single IP 400 mg/kg): 50.51% | Day 1 (RTV) [1, 5]: 1.06 ± 0.12 | Tumor volume, Day 1 [1, 5]: 89.33 ± 14.35** mm^3 | T/C % (relative tumor proliferation rate) ([1]; Day 1): 63.00% | Day 2 (TGI %) ([1]; Day 2, G10-G16 groups, single IP 400 mg/kg): 51.72% | Day 2 (RTV) [1, 6]: 1.27 ± 0.16 | Tumor volume, Day 2 [1, 6]: 108.22 ± 18.22** mm^3 | T/C % (relative tumor proliferation rate) ([1]; Day 2): 61.29% | Day 4 (TGI %) ([1]; Day 4, G10-G16 groups, single IP 400 mg/kg): 48.03% | Day 4 (RTV) [1, 7]: 1.83 ± 0.20 | Tumor volume, Day 4 [1, 7]: 154.33 ± 27.49** mm^3 | T/C % (relative tumor proliferation rate) ([1]; Day 4): 66.28% | Day 7 (TGI %) ([1]; Day 7, G10-G16 groups, single IP 400 mg/kg): 46.09% | Day 7 (RTV) [1, 8]: 2.82 ± 0.25 | Tumor volume, Day 7 [1, 8]: 233.13 ± 37.06** mm^3 | T/C % (relative tumor proliferation rate) ([1]; Day 7): 69.09% | Day 9 (TGI %) ([1]; Day 9, G10-G16 groups, single IP 400 mg/kg): 33.35% | Day 9 (RTV) [1, 9]: 4.84 ± 0.55 | Tumor volume, Day 9 [1, 9]: 393.47 ± 68.53 mm^3 | T/C % (relative tumor proliferation rate) ([1]; Day 9): 86.30% | Day 11 (TGI %) ([1]; Day 11, G10-G16 groups, single IP 400 mg/kg): 38.55% | Day 11 (RTV) [1, 10]: 7.60 ± 0.85 | Tumor volume, Day 11 [1, 10]: 599.83 ± 84* mm^3 | T/C % (relative tumor proliferation rate) ([1]; Day 11): 82.36% | Day 14 (TGI %) ([1]; Day 14, G10-G16 groups, single IP 400 mg/kg): 30.82% | Day 14 (RTV) [1, 11]: 13.37 ± 2.23 | Tumor volume, Day 14 [1, 11]: 996.32 ± 91.77* mm^3 | T/C % (relative tumor proliferation rate) ([1]; Day 14): 96.62% | Day 16 (TGI %) ([1]; Day 16, G10-G16 groups, single IP 400 mg/kg): 24.07% | Day 16 (RTV) [1, 12]: 18.63 ± 3.27 | Tumor volume, Day 16 [1, 12]: 1375.20 ± 109.23* mm^3 | T/C % (relative tumor proliferation rate) ([1]; Day 16): 107.93% | Day 18 (TGI %) ([1]; Day 18, G10-G16 groups, single IP 400 mg/kg): 18.11% | Day 18 (RTV) [1, 13]: 22.45 ± 4.24 | Tumor volume, Day 18 [1, 13]: 1636.39 ± 114.98 mm^3 | T/C % (relative tumor proliferation rate) ([1]; Day 18): 117.59% | Day 21 (TGI %) ([1]; Day 21, G10-G16 groups, single IP 400 mg/kg): 14.51% | Day 21 (RTV) [1, 14]: 29.09 ± 6.00 | Tumor volume, Day 21 [1, 14]: 2090.18 ± 124.45 mm^3 | T/C % (relative tumor proliferation rate) ([1]; Day 21): 124.28% | Day 23 (TGI %) ([1]; Day 23, G10-G16 groups, single IP 400 mg/kg): 10.21% | Day 23 (RTV) [1, 15]: 29.56 ± 5.99 | Tumor volume, Day 23 [1, 15]: 2120.63 ± 111.71 mm^3 | T/C % (relative tumor proliferation rate) ([1]; Day 23): 149.49% | Day 25 (TGI %) ([1]; Day 25, G10-G16 groups, single IP 400 mg/kg): 11.18% | Day 25 (RTV) [1, 16]: 31.95 ± 6.61 | Tumor volume, Day 25 [1, 16]: 2293.73 ± 132.31 mm^3 | T/C % (relative tumor proliferation rate) ([1]; Day 25): 147.80% | Day 28 (TGI %) ([1]; Day 28, G10-G16 groups, single IP 400 mg/kg): 10.61% | Day 28 (RTV) [1, 17]: 35.86 ± 7.35 | Tumor volume, Day 28 [1, 17]: 2404.00 ± 127.93 mm^3 | T/C % (relative tumor proliferation rate) ([1]; Day 28): 169.72% | Day 30 (TGI %) ([1]; Day 30, G10-G16 groups, single IP 400 mg/kg): 10.17% | Day 30 (RTV) [1, 18]: 40.27 ± 10.35 | Tumor volume, Day 30 [1, 18]: 2520.69 ± 108.41 mm^3 | T/C % (relative tumor proliferation rate) ([1]; Day 30): 162.31% | Weight change rate, Day 0 [2, 3]: 0.00% | Weight of mice, Day 0 [2, 4]: 19.90 ± 0.17 g | Weight change rate, Day 1 [2, 5]: −1.76 ± 0.49% | Weight of mice, Day 1 [2, 5]: 19.55 ± 0.21 g | Weight change rate, Day 2 [2, 6]: −0.85 ± 0.43% | Weight of mice, Day 2 [2, 6]: 19.73 ± 0.25 g | Weight change rate, Day 4 [2, 7]: 1.94 ± 0.91 % | Weight of mice, Day 4 [2, 7]: 20.28 ± 0.19 g | Weight change rate, Day 7 [2, 8]: 0.61 ± 0.70 % | Weight of mice, Day 7 [2, 8]: 20.02 ± 0.09 g | Weight change rate, Day 9 [2, 9]: 3.04 ± 1.24 % | Weight of mice, Day 9 [2, 9]: 20.50 ± 0.24 g | Weight change rate, Day 11 [2, 10]: 2.77 ± 1.51% | Weight of mice, Day 11 [2, 10]: 20.45 ± 0.32 g | Weight change rate, Day 14 [2, 11]: −1.53 ± 2.52% | Weight of mice, Day 14 [2, 11]: 19.60 ± 0.57 g | Weight change rate, Day 16 [2, 12]: −2.19 ± 3.22% | Weight of mice, Day 16 [2, 12]: 19.47 ± 0.68 g | Weight change rate, Day 18 [2, 13]: −1.80 ± 3.13% | Weight of mice, Day 18 [2, 13]: 19.55 ± 0.70 g | Weight change rate, Day 21 [2, 14]: −2.23 ± 3.14% | Weight of mice, Day 21 [2, 14]: 19.47 ± 0.72 g | Day 22 Mortality ([2]; Day 22, single IP dose (mg/kg)): 0% | Weight change rate, Day 23 [2, 15]: −2.41 ± 3.42% | Weight of mice, Day 23 [2, 15]: 19.43 ± 0.78 g | Weight change rate, Day 25 [2, 16]: −1.80 ± 3.06% | Weight of mice, Day 25 [2, 16]: 19.55 ± 0.69 g | Weight change rate, Day 28 [2, 17]: −1.77 ± 2.66% | Weight of mice, Day 28 [2, 17]: 19.54 ± 0.67 g | Weight change rate, Day 30 [2, 18]: −1.95 ± 3.04% | Weight of mice, Day 30 [2, 18]: 19.55 ± 0.79 g | clinical symptoms ([2]; after single IP dose, compared with model control group): no significant differences in clinical symptoms
